Laboratory results reported in PubChem BioAssay AID1963864 (Molecular Pharmacology Branch, DTP, NCI, 2024).

Test system: KRAS PDC multicell spheroid viability
Test: Anticancer human tumor 521955-158-R6-J3-PDC patient-derived pancreatic carcinoma cell line growth inhibition [KRAS2]
Details: for viability, T/C: stronger effect = lower value
From the text: Multicellular complex tumor spheroid response to RAS pathway inhibitors in combination with a targeted agents in patient-derived cell lines with oncogenic KRAS variants from multiple cancer types
A high-throughput screen of multi-cell type tumor spheroids was designed to identify active combinations of targeted small molecules and KRAS pathway inhibitors. Complex spheroids include a stromal component modeled by human endothelial cells (HUVEC) and fibroblasts modeled by human mesenchymal stem cells (MSCs). The concentration ranges selected for each drug and investigational agent were based upon clinically achievable concentrations if the clinical Cmax of the agent was known.
Compounds. The drugs and investigational agents: BI-3406 (NSC825286), BAY-293 (NSC824723), batoprotafib (TNO155; NSC825523), sotorasib (AMG 510; NSC818433), MRTX1257 (NSC819558), elimusertib (BAY 1895344; NSC800525), molibresib (GSK525762; NSC774829), temuterkib (LY3214996; NSC803410), venetoclax (NSC766270), alisertib (NSC759677), olaparib (NSC753686), talazoparib (NSC767125), erdafitinib (NSC781556), ipatasertib (NSC767898), cabozantinib (NSC761068), nintedanib (NSC756659), abemaciclib (NSC768073), docetaxel (NSC628503), trametinib (NSC758246), and sapanisertib (NSC764658) were obtained from the National Cancer Institute (NCI) Developmental Therapeutics Program Chemical Repository. The FDA-approved anticancer drug set is available from the Developmental Therapeutics Program. […] The stock solutions were prepared in dimethyl sulfoxide (DMSO, Sigma-Aldrich, St. Louis, MO, cat. D2650) at 800-fold the tested concentration and stored at -70 degrees C prior to their use. All drugs and investigational agents were tested over a range starting from a high concentration at or near the clinical Cmax and decreasing in half-log increments. If the clinical Cmax for an agent had not been determined, the highest concentration tested was 10 microM.
Cell Culture. All cells were maintained in an incubator at 37 degrees C and 5% CO2 with 95% humidity. The PDC lines were cultured according to standard operating procedures established by the NCI PDMR (https://pdmr.cancer.gov/sops/default.htm). Briefly, all PDCs were thawed and cultured in Matrigel-coated flasks prepared with a working solution of 1X Ham's F-12 nutrient mix, without supplementation (Invitrogen, Waltham, MA, cat. 11765054), 100 U/mL penicillin-streptomycin (Invitrogen, cat. 15140122), and 2.5% Matrigel (Corning Inc., Corning, NY, cat. 354248) for the first three passages. All PDCs were cultured in complete DMEM/F-12 media containing advanced DMEM/F-12 (Invitrogen, cat. 12634028), 4.9% defined fetal bovine serum, heat inactivated (HyClone Laboratories Inc., Logan, UT, cat. SH30070.03HI), 389 ng/mL hydrocortisone (Sigma-Aldrich, cat. H4001), 9.7 ng/mL human EGF recombinant protein (Invitrogen, cat. PHG0313), 23.4 microg/mL adenine (Sigma-Aldrich, cat. A2786), 97.3 U/mL penicillin-streptomycin (Invitrogen, cat. 15140122), 1.9 mM L-glutamine (Invitrogen, cat. 25030081), and 9.7 microM Y-27632 dihydrochloride (Tocris Bioscience, Bristol, United Kingdom, cat. 1254). The PDCs were cultured in complete DMEM/F12 media without 9.7 microM Y-27632 dihydrochloride for at least two passages prior to the screen. The established cell line HOP-62 was cultured in RPMI 1640 medium, HEPES (Invitrogen, cat. 22400105) with 10% defined fetal bovine serum (HyClone Laboratories Inc., cat. SH30070.03) and 2 mM L-glutamine (Invitrogen, cat. 25030081). The pooled donor HUVEC were cultured in endothelial cell growth medium 2 (PromoCell, Heidelberg, Germany, cat. C-22011) and the hMSC were cultured in mesenchymal stem cell growth medium 2 (PromoCell, cat. C-28009). For all experiments, HUVEC and hMSC were used at passages </=5, while the malignant cell lines were used at passages </=15. […]

[1] = curve of first compound, second compound 0.1 µM
[2] = curve of first compound, second compound 0.316 µM
[3] = curve of first compound, second compound 1 µM
[4] = curve of first compound, second compound 3.16 µM
[5] = curve of first compound, second compound 10 µM
[6] = second compound 0.1 µM, first compound 0.0316 µM
[7] = second compound 0.1 µM, first compound 0.1 µM
[8] = second compound 0.1 µM, first compound 0.316 µM
[9] = second compound 0.1 µM, first compound 1 µM
[10] = second compound 0.1 µM, first compound 3.16 µM
[11] = second compound 0.1 µM, first compound 10 µM
[12] = second compound 0.316 µM, first compound 0.0316 µM
[13] = second compound 0.316 µM, first compound 0.1 µM
[14] = second compound 0.316 µM, first compound 0.316 µM
[15] = second compound 0.316 µM, first compound 1 µM
[16] = second compound 0.316 µM, first compound 3.16 µM
[17] = second compound 0.316 µM, first compound 10 µM
[18] = second compound 1 µM, first compound 0.0316 µM
[19] = second compound 1 µM, first compound 0.1 µM
[20] = second compound 1 µM, first compound 0.316 µM
[21] = second compound 1 µM, first compound 1 µM
[22] = second compound 1 µM, first compound 3.16 µM
[23] = second compound 1 µM, first compound 10 µM
[24] = second compound 3.16 µM, first compound 0.0316 µM
[25] = second compound 3.16 µM, first compound 0.1 µM
[26] = second compound 3.16 µM, first compound 0.316 µM
[27] = second compound 3.16 µM, first compound 1 µM
[28] = second compound 3.16 µM, first compound 3.16 µM
[29] = second compound 3.16 µM, first compound 10 µM
[30] = second compound 10 µM, first compound 0.0316 µM
[31] = second compound 10 µM, first compound 0.1 µM
[32] = second compound 10 µM, first compound 0.316 µM
[33] = second compound 10 µM, first compound 1 µM
[34] = second compound 10 µM, first compound 3.16 µM
[35] = second compound 10 µM, first compound 10 µM
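Note: drug exposure lasted seven days.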
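Throughout, for viability, T/C: 100% = DMSO vehicle wells and lower means fewer viable cells.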

SMILES: O=C(c1cc(Cc2n[nH]c(=O)c3ccccc23)ccc1F)N1CCN(C(=O)C2CC2)CC1 + C=CC(=O)N1CCN(c2nc(=O)n(-c3c(C)ccnc3C(C)C)c3nc(-c4c(O)cccc4F)c(F)cc23)C(C)C1
- IC50 [1]: > 10 µM
- IC50 [2]: > 10 µM
- IC50 [3]: > 10 µM
- IC50 [4]: > 10 µM
- IC50 [5]: > 10 µM
- viability, T/C [6]: 110%
- viability, T/C [7]: 103%
- viability, T/C [8]: 113%
- viability, T/C [9]: 96.1%
- viability, T/C [10]: 101%
- viability, T/C [11]: 96.2%
- viability, T/C [12]: 118%
- viability, T/C [13]: 118%
- viability, T/C [14]: 106%
- viability, T/C [15]: 104%
- viability, T/C [16]: 93.8%
- viability, T/C [17]: 111%
- viability, T/C [18]: 118%
- viability, T/C [19]: 114%
- viability, T/C [20]: 110%
- viability, T/C [21]: 99.3%
- viability, T/C [22]: 99.7%
- viability, T/C [23]: 111%
- viability, T/C [24]: 103%
- viability, T/C [25]: 105%
- viability, T/C [26]: 95.4%
- viability, T/C [27]: 104%
- viability, T/C [28]: 98.2%
- viability, T/C [29]: 81.5%
- viability, T/C [30]: 84.4%
- viability, T/C [31]: 84.7%
- viability, T/C [32]: 87.1%
- viability, T/C [33]: 84%
- viability, T/C [34]: 84.2%
- viability, T/C [35]: 83.9%

SMILES: CCN1CCN(Cc2ccc(Nc3ncc(F)c(-c4cc(F)c5nc(C)n(C(C)C)c5c4)n3)nc2)CC1 + COc1cc2nc(C)nc(NC(C)c3cc(N)cc(C(F)(F)F)c3)c2cc1OC1CCOC1
- IC50 [1]: > 1 µM
- IC50 [2]: > 1 µM
- IC50 [3]: > 1 µM
- IC50 [4]: > 1 µM
- IC50 [5]: < 0.00316 µM
- viability, T/C (second compound 0.1 µM, first compound 0.00316 µM): 105%
- viability, T/C (second compound 0.1 µM, first compound 0.01 µM): 88%
- viability, T/C [6]: 69.7%
- viability, T/C [7]: 83.9%
- viability, T/C [8]: 73.7%
- viability, T/C [9]: 101%
- viability, T/C (second compound 0.316 µM, first compound 0.00316 µM): 93.8%
- viability, T/C (second compound 0.316 µM, first compound 0.01 µM): 84.5%
- viability, T/C [12]: 88.3%
- viability, T/C [13]: 69.8%
- viability, T/C [14]: 71.8%
- viability, T/C [15]: 88.8%
- viability, T/C (second compound 1 µM, first compound 0.00316 µM): 90.7%
- viability, T/C (second compound 1 µM, first compound 0.01 µM): 84.1%
- viability, T/C [18]: 86.1%
- viability, T/C [19]: 75.6%
- viability, T/C [20]: 71.5%
- viability, T/C [21]: 86.8%
- viability, T/C (second compound 3.16 µM, first compound 0.00316 µM): 87.1%
- viability, T/C (second compound 3.16 µM, first compound 0.01 µM): 82.1%
- viability, T/C [24]: 79.1%
- viability, T/C [25]: 66.8%
- viability, T/C [26]: 69.8%
- viability, T/C [27]: 77.4%
- viability, T/C (second compound 10 µM, first compound 0.00316 µM): 33.4%
- viability, T/C (second compound 10 µM, first compound 0.01 µM): 33.6%
- viability, T/C [30]: 40.5%
- viability, T/C [31]: 55.1%
- viability, T/C [32]: 17.6%
- viability, T/C [33]: 10%

SMILES: C=CC(=O)N1CCN(c2nc(=O)n(-c3c(C)ccnc3C(C)C)c3nc(-c4c(O)cccc4F)c(F)cc23)C(C)C1 (stereo unspecified)
- viability, T/C (compound 0.1 µM): 94.8% [middle of 16 runs]
- viability, T/C (compound 0.316 µM): 97.2% [middle of 16 runs]
- IC50 (compound alone, run of 08/19/2021): > 10 µM
- IC50 (compound alone, run of 08/26/2021): > 10 µM
- IC50 (compound alone, run of 09/02/2021): > 10 µM

SMILES: CCNC(=O)CC1N=C(c2ccc(Cl)cc2)c2cc(OC)ccc2-n2c(C)nnc21 (stereo unspecified)
- viability, T/C (compound 0.0316 µM): 96.8% [middle of 5 runs]
- viability, T/C (compound 0.1 µM): 90.3% [middle of 5 runs]
- viability, T/C (compound 0.316 µM): 84.9% [middle of 5 runs]
- viability, T/C (compound 3.16 µM): 79.8% [middle of 5 runs]
- viability, T/C (compound 10 µM): 79.4% [middle of 5 runs]
- IC50 (curve of compound): > 10 µM

SMILES: COc1cc2nccc(Oc3ccc(NC(=O)C4(C(=O)Nc5ccc(F)cc5)CC4)cc3)c2cc1OC + C=CC(=O)N1CCN(c2nc(=O)n(-c3c(C)ccnc3C(C)C)c3nc(-c4c(O)cccc4F)c(F)cc23)C(C)C1
- IC50 [1]: > 10 µM
- IC50 [2]: > 10 µM
- IC50 [3]: > 10 µM
- IC50 [4]: > 10 µM
- IC50 [5]: > 10 µM
- viability, T/C [6]: 91.9%
- viability, T/C [7]: 96.8%
- viability, T/C [8]: 96.7%
- viability, T/C [9]: 98.1%
- viability, T/C [10]: 119%
- viability, T/C [11]: 111%
- viability, T/C [12]: 95.3%
- viability, T/C [13]: 91.3%
- viability, T/C [14]: 102%
- viability, T/C [15]: 99.2%
- viability, T/C [16]: 115%
- viability, T/C [17]: 122%
- viability, T/C [18]: 89.8%
- viability, T/C [19]: 106%
- viability, T/C [20]: 96.9%
- viability, T/C [21]: 104%
- viability, T/C [22]: 119%
- viability, T/C [23]: 120%
- viability, T/C [24]: 85.5%
- viability, T/C [25]: 82.9%
- viability, T/C [26]: 87.4%
- viability, T/C [27]: 85%
- viability, T/C [28]: 99.1%
- viability, T/C [29]: 90.8%
- viability, T/C [30]: 64.9%
- viability, T/C [31]: 66.2%
- viability, T/C [32]: 52.2%
- viability, T/C [33]: 64.8%
- viability, T/C [34]: 53%
- viability, T/C [35]: 69.9%

SMILES: COc1cc(Nc2ncc3c(n2)-c2ccc(Cl)cc2C(c2c(F)cccc2OC)=NC3)ccc1C(=O)O
- viability, T/C (compound 0.0316 µM): 93.8% [middle of 5 runs]
- viability, T/C (compound 0.1 µM): 90.8% [middle of 5 runs]
- viability, T/C (compound 0.316 µM): 96.9% [middle of 5 runs]
- viability, T/C (compound 1 µM): 90.7% [middle of 5 runs]
- IC50 (curve of compound): > 10 µM
